The subject of assay [1] is IL-17 production by CD4 T cells. The assay is described as follows: Human Th17 assay. It is filed as cell-based. The source says: The human Th17 assay tests the effect of RORγt modulatory compounds on IL-17 production by CD4 T cells under conditions which favor Th17 differentiation. Total CD4^+ T cells were isolated from the peripheral blood mononuclear cells (PBMC) of healthy donors using a CD4^+ T cell isolation kit II, following the manufacturer's instructions (Miltenyi Biotec). Cells were resuspended in a medium of RPMI-1640 supplemented with 10% fetal bovine serum, penicillin, streptomycin, glutamate, and β-mercaptoethanol and were added to 96-well plates at 1.5×10^5 per 100 μL per well. 50 μL of compound at titrated concentrations in DMSO were added into each well at final DMSO concentration at 0.2%. Cells were incubated for 1 hour, then 50 μL of Th17 cell differentiation medium was added to each well. The final concentrations of antibodies and cytokines (R&D Systems) in differentiation medium were: 3×10^6/mL anti-CD3/CD28 beads (prepared using human T cell activation/expansion kit, Miltenyi Biotec), 10 μg/mL anti-IL4, 10 μg/mL anti-IFNγ, 10 ng/mL IL1β, 10 ng/mL IL23, 50 ng/mL IL6, 3 ng/mL TGFβ and 20 U/mL IL2. Cells were cultured at 37° C. and 5% CO2 for 3 days. Supernatants were collected and the accumulated IL-17 in culture was measured by using MULTI-SPOT® Cytokine Plate following manufacture's instruction (Meso Scale Discovery). The plate was read using Sector Imager 6000, and IL-17 concentration was extrapolated from the standard curve. The IC50s were determined by GraphPad.

Another assay deals with full-length human RORγt (Homo sapiens (Human), UniProt P51449). The experiment in a line: RORγt (full-length human) reporter assay, Conditions B or C. It is filed as cell-based. To be noted: for RORγt (FL) Reporter Assay B or C, % inhibition (value marked *): marked *: footnote not given; for inhibition at 3 µM: at 3 μM compound concentration, read-out: RORγt (FL) Reporter Assay B or C, % inhibition; for inhibition at 6 µM: read-out: RORγt (FL) Reporter Assay B or C, % inhibition @ 6 μM, Conditions B or C. The gist of the method:
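Readout is dual luciferase: firefly (GAL4-driven) normalized to DMSO-only and saturating-reference controls, then to CMV-Renilla. Full-length human RORγt fused to GAL4-DBD was transiently expressed in HEK293T; compound exposure ran overnight (16-20 h) starting 4-6 h after transfection, final FBS 1.3%, DMSO 0.1%.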

Where [2] appears, read: read-out: Human Th17 Assay, IC50 (μM).
[3] abbreviates: Conditions B or C, read-out: RORγt (FL) Reporter Assay B or C, IC50.
The mark [4] stands for this setting: read-out: Human Th17 Assay, IC50.
The mark [5] stands for this setting: read-out: RORγt (FL) Reporter Assay B or C, IC50.

The results in this text go back to patent US10975068B2, “6-aminopyridin-3-yl thiazoles as modulators of RORγT” (Janssen Pharmaceutica NV, priority 2016, dated 2021).

The IC50 is the concentration needed to halve the response being measured. The term inhibition denotes the relative decrease from the control value, in per cent.

SMILES strings stand for the structures. Like-named read-outs stand apart in the source and are kept apart here.

Chain of full-length human RORγt (P51449 other isoform, or with tags, fused parts or gaps): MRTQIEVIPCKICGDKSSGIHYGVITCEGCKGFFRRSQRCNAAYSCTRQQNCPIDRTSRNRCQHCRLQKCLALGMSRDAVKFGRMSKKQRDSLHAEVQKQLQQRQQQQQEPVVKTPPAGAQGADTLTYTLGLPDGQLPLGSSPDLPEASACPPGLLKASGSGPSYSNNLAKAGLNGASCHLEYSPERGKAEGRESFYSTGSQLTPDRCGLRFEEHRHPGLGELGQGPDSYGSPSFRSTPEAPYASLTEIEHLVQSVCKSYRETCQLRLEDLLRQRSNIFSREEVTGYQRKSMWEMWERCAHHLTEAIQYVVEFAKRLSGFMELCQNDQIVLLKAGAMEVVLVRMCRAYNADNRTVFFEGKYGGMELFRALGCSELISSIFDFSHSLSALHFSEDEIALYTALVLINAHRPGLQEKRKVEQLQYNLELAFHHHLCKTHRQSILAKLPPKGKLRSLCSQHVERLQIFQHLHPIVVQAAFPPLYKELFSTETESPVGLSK

For `CC(C)(C)CNc1cc(C(F)F)c(-c2sc(C(=O)NCC(C)(C)O)nc2C(=O)N2C3CCC2CC3)cn1` [Example 116, 4-((1s,4s)-7-Azabicyclo[2.2.1]heptane-7-carbonyl)-5-(4-(difluoromethyl)-6-(neopentylamino)pyridin-3-yl)-N-(2-hydroxy-2-methylpropyl)thiazole-2-carboxamide], the values for the IC50 (in assay [1] (setting [2]); at full-length human RORγt (setting [3])) were 0.044 µM and 0.034 µM, respectively. Also, on full-length human RORγt (Conditions B or C), the “RORγt (FL) Reporter Assay B or C, % inhibition (value marked *)” value (from here on “RORγt … % inhibition (value marked *)”) is given as 110* %.
Regarding `C[C@H](NC(=O)c1nc(C(=O)N2CCC[C@@H]2C)c(-c2cnc(NC(C)(C)C)cc2C(F)(F)F)s1)C(C)(C)O` [Example 336, 5-[6-(tert-Butylamino)-4-(trifluoromethyl)-3-pyridyl]-N-[(1S)-2-hydroxy-1,2-dimethyl-propyl]-4-[(2S)-2-methylpyrrolidine-1-carbonyl]thiazole-2-carboxamide], the figures for the IC50 (in assay [1] (setting [4]); on full-length human RORγt (setting [5])) were 0.011 µM and 0.0056 µM, respectively. The inhibition at 3 µM on full-length human RORγt was determined as 108%.
In the case of `CC(C)(O)CNC(=O)c1nc(C(=O)N2C3CCC2CC3)c(-c2cnc(NCC(C)(C)C(F)(F)F)cc2C(F)(F)F)s1` [Example 122, 4-((1s,4s)-7-Azabicyclo[2.2.1]heptane-7-carbonyl)-N-(2-hydroxy-2-methylpropyl)-5-(6-((3,3,3-trifluoro-2,2-dimethylpropyl)amino)-4-(trifluoromethyl)pyridin-3-yl)thiazole-2-carboxamide], the IC50 in assay [1] (setting [2]) came out at 0.02 µM; on full-length human RORγt (setting [3]) it was 0.033 µM. The “RORγt … % inhibition (value marked *)” value at full-length human RORγt (Conditions B or C) is 102* %.
For `C[C@H](Nc1cc(C(F)(F)F)c(-c2sc(C(=O)NCC(C)(C)O)nc2C(=O)N2CC(F)(F)C[C@@H]2C)cn1)C1CC1` [Example 142, 5-(6-(((S)-1-Cyclopropylethyl)amino)-4-(trifluormethyl)pyridin-3-yl)-4-((S)-4,4-difluoro-2-methylpyrrolidine-1-carbonyl)-N-(2-hydroxy-2-methylpropyl)thiazole-2-carboxamide], the IC50 came to 0.019 µM in assay [1] (setting [4]) and 0.027 µM on full-length human RORγt (setting [3]). The “RORγt … % inhibition (value marked *)” value on full-length human RORγt (Conditions B or C) is 109* %.
Regarding `C[C@H]1CCCCN1C(=O)c1nc(C(=O)NCC(C)(C)O)sc1-c1cnc(NC2CCCC2)cc1C(F)(F)F` [Example 27, (S)-5-(6-(Cyclopentylamino)-4-(trifluoromethyl)pyridin-3-yl)-N-(2-hydroxy-2-methylpropyl)-4-(2-methylpiperidine-1-carbonyl)thiazole-2-carboxamide], the IC50 in assay [1] (setting [4]) was determined as 0.016 µM; at full-length human RORγt (setting [3]), 0.0084 µM. In addition, the inhibition at 6 µM at full-length human RORγt is 106%.
With `O=C(N[C@H]1C[C@H](O)C1)c1nc(C(=O)N2C3CCC2CC3)c(-c2cnc(N[C@@H](C3CC3)C(F)(F)F)cc2C(F)F)s1` [Example 318, 4-((1s,4s)-7-Azabicyclo[2.2.1]heptane-7-carbonyl)-5-(6-(((S)-1-cyclopropyl-2,2,2-trifluoroethyl)amino)-4-(difluoromethyl)pyridin-3-yl)-N-((1r,3S)-3-hydroxycyclobutyl)thiazole-2-carboxamide], the figures for the IC50 (in assay [1] (setting [4]); at full-length human RORγt (setting [5])) were 0.017 µM and 0.028 µM, respectively. For the same molecule, the inhibition at 3 µM on full-length human RORγt turned out to be 86%.
Turning to `C[C@H]1CCCCN1C(=O)c1nc(C(=O)NCC(C)(C)O)sc1-c1cnc(NC2CCCC2)cc1C(F)F` [Example 41, (S)-5-(6-(Cyclopentylamino)-4-(difluoromethyl)pyridin-3-yl)-N-(2-hydroxy-2-methylpropyl)-4-(2-methylpiperidine-1-carbonyl)thiazole-2-carboxamide], the IC50 is 0.043 µM in assay [1] (setting [4]) and 0.0076 µM at full-length human RORγt (setting [3]). Further, the inhibition at 6 µM at full-length human RORγt came out at 103%.
In the case of `CC[C@H](Nc1cc(C(F)F)c(-c2sc(C(=O)NCC(C)(C)O)nc2C(=O)N2CC(F)(F)C[C@@H]2C)cn1)C(F)(F)F` [Example 90, 4-((S)-4,4-Difluoro-2-methylpyrrolidine-1-carbonyl)-5-(4-(difluoromethyl)-6-(((S)-1,1,1-trifluorobutan-2-yl)amino)pyridin-3-yl)-N-(2-hydroxy-2-methylpropyl)thiazole-2-carboxamide], the 50% inhibitory concentration (IC50) in assay [1] (setting [4]) worked out at 0.076 µM; at full-length human RORγt (setting [3]), 0.11 µM. At full-length human RORγt (Conditions B or C), the “RORγt … % inhibition (value marked *)” value was 86* %.
With `C[C@H]1CC(F)(F)CN1C(=O)c1nc(C(=O)NCC(C)(C)O)sc1-c1cnc(NCC(C)(C)C)cc1C(F)F` [Example 115, (S)-4-(4,4-Difluoro-2-methylpyrrolidine-1-carbonyl)-5-(4-(difluoromethyl)-6-(neopentylamino)pyridin-3-yl)-N-(2-hydroxy-2-methylpropyl)thiazole-2-carboxamide], the results for the IC50 (in assay [1] (setting [4]); on full-length human RORγt (setting [3])) were 0.022 µM and 0.028 µM, respectively. Further, the “RORγt … % inhibition (value marked *)” value on full-length human RORγt (Conditions B or C) is 115* %.
In the same order, the values of `CC[C@H](Nc1cc(C(F)(F)F)c(-c2sc(C(=O)NCC(C)(C)O)nc2C(=O)N2CCC[C@@H]2C)cn1)C(F)(F)F` [Example 111, N-(2-Hydroxy-2-methylpropyl)-4-((S)-2-methylpyrrolidine-1-carbonyl)-5-(6-(((S)-1,1,1-trifluorobutan-2-yl)amino)-4-(trifluoromethyl)pyridin-3-yl)thiazole-2-carboxamide] are 0.017 µM, 0.029 µM and 106* %.
For the molecule `CC(C)(O)CNC(=O)c1nc(C(=O)N2C3CCC2CC3)c(-c2cnc(NC3(C)CCC3)cc2C(F)F)s1` [Example 169, 4-((1s,4s)-7-Azabicyclo[2.2[1]heptane-7-carbonyl)-5-(4-(difluoromethyl)-6-((1-methylcyclobutyl)amino)pyridine-3-yl)-N-(2-hydroxy-2-methylpropyl))thiazole-2-carboxamide], the IC50 worked out at 0.034 µM in assay [1] (setting [2]) and 0.012 µM against full-length human RORγt (RORγt (FL) Reporter Assay B or C, IC50 (μM), Conditions B or C). Besides, at full-length human RORγt (Conditions B or C), the “RORγt … % inhibition (value marked *)” value is 94* %.
As for `C[C@H](Nc1cc(C(F)F)c(-c2sc(C(=O)NCC(C)(C)O)nc2C(=O)N2CC(F)(F)C[C@@H]2C)cn1)C(F)(F)F` [Example 135], the half-inhibitory concentration (IC50) in assay [1] (setting [4]) was found to be 0.044 µM; at full-length human RORγt (setting [3]), 0.039 µM. For the same molecule, the “RORγt … % inhibition (value marked *)” value on full-length human RORγt (Conditions B or C) is recorded as 100* %.
On to `C[C@H]1CC(F)(F)CN1C(=O)c1nc(C(=O)NCC(C)(C)O)sc1-c1cnc(NC2(C(F)(F)F)CCC2)cc1C(F)F` [Example 124, (S)-4-(4,4-Difluoro-2-methylpyrrolidine-1-carbonyl)-5-(4-(difluoromethyl)-6-((1-(trifluoromethyl)cyclobutyl)amino)pyridin-3-yl)-N-(2-hydroxy-2-methylpropyl)thiazole-2-carboxamide], for which the concentration for half-maximal inhibition (IC50) in assay [1] (setting [4]) came to 0.0067 µM; at full-length human RORγt (setting [3]), 0.021 µM. Besides, the “RORγt … % inhibition (value marked *)” value at full-length human RORγt (Conditions B or C) is listed as 108* %.
Take `C[C@H]1CCCN1C(=O)c1nc(C(=O)NCC(C)(C)O)sc1-c1cnc(NC2CCCC2)cc1C(F)(F)F` [Example 38, (S)-5-(6-(Cyclopentylamino)-4-(trifluoromethyl)pyridin-3-yl)-N-(2-hydroxy-2-methylpropyl)-4-(2-methylpyrrolidine-1-carbonyl)thiazole-2-carboxamide]: the IC50 amounted to 0.081 µM in assay [1] (setting [4]) and 0.015 µM at full-length human RORγt (setting [3]). The inhibition at 6 µM at full-length human RORγt was 108%.
Consider `C[C@H]1CCCN1C(=O)c1nc(C(=O)NC[C@@H](O)C(C)(C)O)sc1-c1cnc(NC(C)(C)C)cc1C(F)(F)F` (single isomer, unassigned) [Example 243, 5-(6-(tert-Butylamino)-4-(trifluoromethyl)pyridin-3-yl)-N—((R*)-2,3-dihydroxy-3-methylbutyl)-4-((S)-2-methylpyrrolidine-1-carbonyl)thiazole-2-carboxamide], for which the 50% inhibitory concentration (IC50) in assay [1] (setting [4]) came out at 0.063 µM; at full-length human RORγt (setting [3]) it was 0.0068 µM. The “RORγt … % inhibition (value marked *)” value on full-length human RORγt (Conditions B or C) is listed as 95* %.
Consider `CC(C)(O)CNC(=O)c1nc(C(=O)N2C3CCC2CC3)c(-c2cnc(NC3(C)CCC3)cc2C(F)(F)F)s1` [Example 140, 4-((1s,4s)-7-Azabicyclo[2.2.1]heptane-7-carbonyl)-N-(2-hydroxy-2-methylpropyl)-5-(6-((1-methylcyclobutyl)amino)-4-(trifluoromethyl)pyridin-3-yl)thiazole-2-carboxamide], for which the half-inhibitory concentration (IC50) (in assay [1] (setting [2]); at full-length human RORγt (setting [3])) was 0.011 µM in each case. In addition, at full-length human RORγt (Conditions B or C), the “RORγt … % inhibition (value marked *)” value is 89* %.
